Structures can show the parent of a compound that is named as a salt.
Key:
[1] = biological target: T1, Paenibacillus thiaminolyticus thiaminase I (WP_087440168) (Paenibacillus thiaminolyticus, UniProt B0FJ10); experiment: in-gel thiaminase I activity staining (diazo-coupling) after electrophoresis; assay type: biochemical; conditions: 0.89 mM thiamine-HCl with a co-substrate, 25 mM sodium phosphate, 37 °C; recombinant positive control
T1 construct: gene bcmE; native enzyme in concentrated culture supernatant (strain 8188), and recombinant positive control from synthetic gene in pET52b in E. coli; 42 kDa monomer
T1 sequence (B0FJ10 31-409): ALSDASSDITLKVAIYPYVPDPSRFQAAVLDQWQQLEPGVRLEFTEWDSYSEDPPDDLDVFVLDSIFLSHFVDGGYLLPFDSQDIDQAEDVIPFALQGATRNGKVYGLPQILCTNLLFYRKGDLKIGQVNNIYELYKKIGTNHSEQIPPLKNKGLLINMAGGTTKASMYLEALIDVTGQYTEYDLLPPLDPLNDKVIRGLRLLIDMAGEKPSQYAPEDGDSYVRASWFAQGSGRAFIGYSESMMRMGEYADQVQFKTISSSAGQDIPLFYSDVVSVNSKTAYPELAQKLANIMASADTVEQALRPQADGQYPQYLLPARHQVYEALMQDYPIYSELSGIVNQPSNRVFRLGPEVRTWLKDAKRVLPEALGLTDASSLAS

[2] = biological target: T2, zebrafish TenA-like thiaminase I (NP_001314821.1) (Danio rerio, UniProt A0A0R4IDF2); experiment: as above; assay type: biochemical; conditions: 0.89 mM thiamine-HCl with a co-substrate, 25 mM sodium phosphate, 37 °C
T2 construct: gene teni.1; synthetic gene in pET52b, expressed in E. coli Rosetta 2(DE3)pLysS, soluble lysate fraction; oligomer 25 to 100 kDa native
T2 sequence (A0A0R4IDF2 22-223): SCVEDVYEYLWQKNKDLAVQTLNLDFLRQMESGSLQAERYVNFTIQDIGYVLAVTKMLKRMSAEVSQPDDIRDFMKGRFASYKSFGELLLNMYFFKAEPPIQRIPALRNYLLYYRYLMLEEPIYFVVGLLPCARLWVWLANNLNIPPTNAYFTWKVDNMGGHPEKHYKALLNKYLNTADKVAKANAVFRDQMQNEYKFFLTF

Compound: Cc1ncc(C[n+]2csc(CCO)c2C)c(N)n1 [thiamine-HCl]
- in-gel thiaminase I activity staining (diazo-coupling) after electrophoresis [1]: stained for activity showing thiamine degradation as clear areas
- in-gel thiaminase I activity staining (diazo-coupling) after electrophoresis [2]: expressed in the soluble fraction of the protein extract and showed thiaminase I activity

Source: publication PMC9839694, “Genetic basis of thiaminase I activity in a vertebrate, zebrafish Danio rerio” (Scientific Reports, 2023)
